# From PMC2715367 (Journal of medicinal chemistry, 2009)
# Marks after values point to notes of the source that are not given here.
# What was measured:
# rat PFT = rat PFT (Rattus norvegicus, UniProt Q02293+Q04631); test: Rat PFT scintillation proximity assay; format: biochemical; details: for Fold increase in PFT IC50 (decrease in PFT inhibition) compared to tipifarnib: rat PFT
# human 14DM = molecular target: T1, human 14DM (Homo sapiens, UniProt Q16850); test: Inhibition of human 14DM; format: biochemical; details: same conditions as Tc14DM assay
# T1 sequence (Q16850 1-509): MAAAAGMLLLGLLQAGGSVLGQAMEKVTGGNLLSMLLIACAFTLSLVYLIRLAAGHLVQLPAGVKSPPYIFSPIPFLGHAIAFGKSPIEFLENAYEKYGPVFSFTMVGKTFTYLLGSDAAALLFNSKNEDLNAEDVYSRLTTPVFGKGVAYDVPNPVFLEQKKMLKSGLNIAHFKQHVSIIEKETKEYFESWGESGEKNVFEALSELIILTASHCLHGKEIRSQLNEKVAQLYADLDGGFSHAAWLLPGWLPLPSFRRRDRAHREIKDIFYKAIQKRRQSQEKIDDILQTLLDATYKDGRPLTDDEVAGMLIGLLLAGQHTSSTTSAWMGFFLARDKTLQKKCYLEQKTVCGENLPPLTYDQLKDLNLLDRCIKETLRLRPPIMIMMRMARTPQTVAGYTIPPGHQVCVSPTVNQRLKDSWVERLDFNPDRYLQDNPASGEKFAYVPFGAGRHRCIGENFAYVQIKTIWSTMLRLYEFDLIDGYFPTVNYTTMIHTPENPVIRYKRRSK
# [1] = molecular target: recombinant human CYP3A4 enzyme (Homo sapiens, UniProt P08684); test: CYP3A4 inhibition assay; format: in vitro ADME; details: in vitro
# Sequence of recombinant human CYP3A4 enzyme (P08684 whole entry): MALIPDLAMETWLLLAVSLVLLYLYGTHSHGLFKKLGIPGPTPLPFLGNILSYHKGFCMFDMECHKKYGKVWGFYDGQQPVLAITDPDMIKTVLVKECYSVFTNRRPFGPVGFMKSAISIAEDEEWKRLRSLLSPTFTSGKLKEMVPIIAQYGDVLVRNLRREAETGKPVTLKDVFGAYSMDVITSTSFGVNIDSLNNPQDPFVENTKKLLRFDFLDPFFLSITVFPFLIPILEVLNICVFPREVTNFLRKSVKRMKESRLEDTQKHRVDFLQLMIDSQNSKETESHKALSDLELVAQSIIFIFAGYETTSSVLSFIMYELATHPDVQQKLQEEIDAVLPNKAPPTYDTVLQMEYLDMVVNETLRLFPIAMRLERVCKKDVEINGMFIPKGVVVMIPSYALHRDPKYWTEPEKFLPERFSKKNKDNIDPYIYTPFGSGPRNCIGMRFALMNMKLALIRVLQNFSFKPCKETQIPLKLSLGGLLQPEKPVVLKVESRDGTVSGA
# [2] = system: T. cruzi trypomastigotes (Tulahuen strain); test: Efficacy studies in T. cruzi infected mice; format: in vivo; details: for Weight loss in mice: 100 mg/kg twice per day, days 8−13; for Survival of infected mice: oral gavage for 20 days from day 8 post-infection
# [3] = Pharmacokinetic studies in mice; details: female, BALB/c, mouse, po, 50 mg/kg
# [4] = system: mammalian cytochrome P450 enzymes; details: cited from earlier work
# [5] = oral; cited from earlier work
# [6] = cited from earlier work
# T. cruzi amastigotes = test: T. cruzi growth inhibition assay; format: cell-based; details: Trypanosoma cruzi, read-out: T. cruzi amastigote EC50
# T. cruzi PFT enzyme = details: cited from earlier work
smiles,measurement,setting,value
Cc1cc([C@@](N)(c2ccc3c(c2)c(-c2cccc(Cl)c2)cc(=O)n3C)c2cncn2C)ccc1Cl (racemic) [Compound 2a],Fold increase in PFT IC50 (decrease in PFT inhibition) compared to tipifarnib,rat PFT,19 fold
Cc1c(Cl)cccc1-c1cc(=O)n(C)c2ccc([C@](N)(c3ccc(Cl)cc3)c3cncn3C)cc12 (racemic) [Compound 2c],Inhibition of human 14DM,human 14DM,do not inhibit
Cc1ccccc1-c1cc(=O)n(C)c2ccc([C@](N)(c3ccc(Cl)cc3)c3cncn3C)cc12 (racemic) [Compound 2d],Fold increase in PFT IC50 (decrease in PFT inhibition) compared to tipifarnib,rat PFT,about 430 fold
Cn1cncc1[C@@](N)(c1ccc(Cl)cc1)c1ccc2c(c1)c(-c1cccc3ccccc13)cc(=O)n2C (racemic) [Compound 2f],Inhibition of human 14DM,human 14DM,do not inhibit
"COC(c1ccc(Cl)cc1)(c1ccc2c(c1)c(-c1cccc(Cl)c1C)cc(=O)n2C)c1cncn1C (racemic) [Compound 2g, 4-(3-Chloro-2-methylphenyl)-6-((4-chlorophenyl)(methoxy)(1-methyl-1H-imidazol-5-yl)methyl)-1-methylquinolin-2(1H)-one]",Inhibition of CYP3A4 (in words),[1],weak inhibition
same,Weight loss in mice,[2],some weight loss was observed
same,Survival of infected mice,[2],One mouse in the 2g group died after the end of treatment
same,Ratio IC50/EC50,rat PFT; PFT IC50 / T. cruzi amastigote EC50,>7700 ^*
same,inhibition at 5 µM,rat PFT; read-out: PFT inhibition at highest concentration evaluated,< 50%
same,Inhibition of human 14DM,human 14DM,do not inhibit
same,Cmax,[3]; plasma,5 to 7 µM
"O=C(Cn1ccnc1[N+](=O)[O-])NCc1ccccc1 [Benznidazole, benznidazole]",Mice with positive parasite blood cultures,[2]; surviving mice sacrificed at day 103 post-infection,3 of 6
"Cn1cncc1[C@@](N)(c1ccc(Cl)cc1)c1ccc2c(c1)c(-c1cccc(Cl)c1)cc(=O)n2C [Tipifarnib, tipifarnib]",Inhibitory activity against mammalian cytochrome P450 enzymes,[4],very little inhibitory activity
same,Weight loss in mice,[2],some weight loss was observed
same,Survival of infected mice,[2],did not protect the mice from death
same,Delay in development of high parasitemia,[2]; oral gavage twice daily from day 8 post-infection,3−4 days
same,Terminal half-life,[5],16 h
same,Dose limiting toxicities in humans,[6],bone marrow suppression
same,EC50,T. cruzi amastigotes,6 nM
same,Inhibition of human 14DM,human 14DM,do not inhibit
same,Cmax,[3]; in vivo,5 to 7 µM
same,half-life,[3]; in vivo,~240 min
same,Activity against isolated T. cruzi PFT enzyme,T. cruzi PFT enzyme,weak activity
